Results as given in patent US6620593B1, “Method for safety evaluation of chemical compound using recombinant yeast expressing human cytochrome P450” (Sumitomo Chemical Company, Limited, priority 1993, dated 2003).
Where two headings read alike, the source gives them in different places.

Columns and labels:
human P450 2D6 = assay: Metabolism (hydroxylation) of substrates using transformed yeast cells or microsomal fractions expressing human P450 2D6
Method: (§1) Then 2 ml of dichloromethane was added.

human P450 1A2 = molecular target: T1, human P450 1A2 (Homo sapiens, UniProt P05177); assay: Metabolism (hydroxylation) of substrates using transformed yeast cells or their microsomal fractions expressing human P450 1A2 and yeast NADPH-P450 reductase
T1 sequence (P05177 1-516): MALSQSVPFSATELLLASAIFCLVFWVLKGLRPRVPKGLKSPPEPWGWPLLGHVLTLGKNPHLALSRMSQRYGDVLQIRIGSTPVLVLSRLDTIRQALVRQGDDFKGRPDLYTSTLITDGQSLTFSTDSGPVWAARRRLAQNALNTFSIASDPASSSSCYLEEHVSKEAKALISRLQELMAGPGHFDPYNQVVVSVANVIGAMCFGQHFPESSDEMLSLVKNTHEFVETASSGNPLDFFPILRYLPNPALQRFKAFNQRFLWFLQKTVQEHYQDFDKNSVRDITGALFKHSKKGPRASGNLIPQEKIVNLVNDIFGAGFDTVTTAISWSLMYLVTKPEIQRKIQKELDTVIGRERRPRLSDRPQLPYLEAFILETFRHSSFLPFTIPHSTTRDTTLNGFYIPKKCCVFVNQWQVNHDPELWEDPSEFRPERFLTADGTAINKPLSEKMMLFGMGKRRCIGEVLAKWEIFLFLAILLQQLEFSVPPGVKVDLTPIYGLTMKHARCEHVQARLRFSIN
Method: as §1

human P450 2C8 = assay: Metabolism (hydroxylation) of substrates using transformed yeast cells or microsomal fractions expressing human P450 2C8
Method: as §1

[1] = system: other human P450 molecular species
[2] = system: mixed system B (eleven human P450 molecular species); assay: Metabolism of S-mephenytoin using mixture of microsomal fractions of transformed yeast cells (mixing system B); assay type: in vitro ADME; conditions: 37° C., 30 min; HPLC
Method: The mixing ratio of the human cytochrome P450 molecular species was the same as that of the mixing system B as described above. […] After the mixture was incubated at 37° C. for 30 min, 250 μl of methanol was added to the solution to stop the reaction.

human P450 2C9 = human P450 2C9 (Homo sapiens, UniProt P11712); assay: Metabolism (hydroxylation) of substrates using transformed yeast cells or microsomal fractions expressing human P450 2C9
Method: as §1

human P450 1A1 [3] = molecular target: T2, human P450 1A1 (Homo sapiens, UniProt P04798); assay: Metabolism (hydroxylation) of substrates using transformed yeast cells or microsomal fractions expressing human P450 1A1; conditions: Table 1; recombinant yeast cells or microsomal fractions; conditions per substrate
T2 sequence (P04798 1-512): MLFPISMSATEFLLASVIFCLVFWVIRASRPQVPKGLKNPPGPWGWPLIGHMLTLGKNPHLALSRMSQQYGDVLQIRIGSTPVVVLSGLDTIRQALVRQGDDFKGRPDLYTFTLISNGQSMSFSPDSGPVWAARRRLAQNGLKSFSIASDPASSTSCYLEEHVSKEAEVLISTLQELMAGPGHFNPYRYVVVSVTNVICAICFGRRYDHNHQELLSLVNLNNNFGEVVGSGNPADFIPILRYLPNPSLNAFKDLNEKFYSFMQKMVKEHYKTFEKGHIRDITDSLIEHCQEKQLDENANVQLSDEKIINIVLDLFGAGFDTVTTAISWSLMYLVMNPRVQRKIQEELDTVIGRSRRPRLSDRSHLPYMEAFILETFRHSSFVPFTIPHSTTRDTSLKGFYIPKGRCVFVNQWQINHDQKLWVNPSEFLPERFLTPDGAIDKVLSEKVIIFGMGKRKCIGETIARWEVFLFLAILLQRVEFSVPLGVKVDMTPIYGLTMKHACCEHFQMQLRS

human P450 2A6 = assay: Metabolism (hydroxylation) of substrates using transformed yeast cells or microsomal fractions expressing human P450 2A6
Method: as §1

human P450 2C18 = molecular target: T3, human P450 2C18 (Homo sapiens, UniProt P33260); assay: Metabolism (hydroxylation) of substrates using transformed yeast cells or microsomal fractions expressing human P450 2C18
T3 sequence (P33260 26-490): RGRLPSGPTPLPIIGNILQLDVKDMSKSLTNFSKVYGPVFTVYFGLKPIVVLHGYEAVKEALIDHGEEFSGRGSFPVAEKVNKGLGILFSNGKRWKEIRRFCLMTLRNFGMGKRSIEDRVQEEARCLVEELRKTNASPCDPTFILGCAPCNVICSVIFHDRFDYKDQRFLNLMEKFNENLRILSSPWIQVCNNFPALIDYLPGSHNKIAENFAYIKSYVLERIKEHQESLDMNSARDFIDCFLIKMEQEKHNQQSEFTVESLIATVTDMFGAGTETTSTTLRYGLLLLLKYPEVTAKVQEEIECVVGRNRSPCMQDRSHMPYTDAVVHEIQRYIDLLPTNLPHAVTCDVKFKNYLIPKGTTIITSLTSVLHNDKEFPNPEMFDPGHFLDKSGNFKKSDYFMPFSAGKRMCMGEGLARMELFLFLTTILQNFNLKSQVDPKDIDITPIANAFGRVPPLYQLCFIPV
Method: as §1

human P450 2B6 = molecular target: T4, human P450 2B6 (Homo sapiens, UniProt P20813); assay: Metabolism (hydroxylation) of substrates using transformed yeast cells or microsomal fractions expressing human P450 2B6
T4 sequence (P20813 1-491): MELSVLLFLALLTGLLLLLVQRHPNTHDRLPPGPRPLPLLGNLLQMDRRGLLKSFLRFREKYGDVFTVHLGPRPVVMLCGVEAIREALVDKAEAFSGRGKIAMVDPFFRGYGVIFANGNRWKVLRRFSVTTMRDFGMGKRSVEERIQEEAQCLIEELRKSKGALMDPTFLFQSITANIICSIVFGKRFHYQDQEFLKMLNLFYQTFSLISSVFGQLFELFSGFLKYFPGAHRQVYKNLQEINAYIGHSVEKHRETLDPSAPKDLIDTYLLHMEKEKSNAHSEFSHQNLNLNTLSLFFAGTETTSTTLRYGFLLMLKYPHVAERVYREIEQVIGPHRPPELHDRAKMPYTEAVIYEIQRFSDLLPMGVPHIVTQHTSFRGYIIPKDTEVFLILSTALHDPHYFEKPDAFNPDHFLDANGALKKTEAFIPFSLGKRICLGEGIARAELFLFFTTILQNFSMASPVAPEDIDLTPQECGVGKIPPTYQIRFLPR
Method: as §1

human P450 2E1 = human P450 2E1 (Homo sapiens, UniProt P05181); assay: Metabolism (hydroxylation) of substrates using transformed yeast cells or microsomal fractions expressing human P450 2E1
Method: as §1

human P450 3A4 = assay: Metabolism (hydroxylation) of substrates using transformed yeast cells or microsomal fractions expressing human P450 3A4
Method: as §1

human P450 1A1 [4] = molecular target: T2, human P450 1A1; conditions: microsomes
human P450 2C19 = human P450 2C19 (Homo sapiens, UniProt P33261); assay: Metabolism (hydroxylation) of substrates using transformed yeast cells or microsomal fractions expressing human P450 2C19
Method: as §1

[5] = system: mixed microsomal fractions of yeasts expressing human cytochrome P450 (3A4, 2C9, 2C8, 2C18, 2C19, 1A2, 2E1, 1A1, 2B6, 2D6); assay: Metabolism of debrisoquine using mixture of microsomal fractions of transformed yeast cells; assay type: in vitro ADME; conditions: 37° C., 30 min; HPLC
Method: The mixing molar ratio of the human cytochrome P450 molecular species were as follows: [table] […] After the mixture was incubated at 37° C. for 30 min, 50 μl of 60% perchlorate was added to the solution to stop the reaction.

[6] = system: other human P450 molecular species; assay: Metabolism of substrates using yeast cells or microsomal fractions expressing the other human P450 molecular species (those not given); conditions: the remaining of the eleven human P450 species
[7] = Table 1, recombinant yeast cells or microsomal fractions, conditions per substrate

Sequence of human P450 2E1 (P05181 whole entry): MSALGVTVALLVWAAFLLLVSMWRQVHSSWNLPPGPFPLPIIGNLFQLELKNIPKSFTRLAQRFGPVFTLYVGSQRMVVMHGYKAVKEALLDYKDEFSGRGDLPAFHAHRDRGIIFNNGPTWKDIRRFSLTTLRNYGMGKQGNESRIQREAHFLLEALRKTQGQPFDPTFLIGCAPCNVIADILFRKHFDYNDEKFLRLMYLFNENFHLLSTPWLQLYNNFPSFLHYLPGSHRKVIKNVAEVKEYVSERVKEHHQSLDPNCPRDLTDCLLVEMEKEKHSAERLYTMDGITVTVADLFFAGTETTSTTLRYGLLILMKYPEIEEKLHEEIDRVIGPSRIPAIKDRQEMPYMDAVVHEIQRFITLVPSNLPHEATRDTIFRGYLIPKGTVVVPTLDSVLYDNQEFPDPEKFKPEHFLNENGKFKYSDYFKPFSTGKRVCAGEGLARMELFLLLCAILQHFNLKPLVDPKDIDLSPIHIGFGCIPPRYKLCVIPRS
Sequence of human P450 2C19 (P33261 whole entry): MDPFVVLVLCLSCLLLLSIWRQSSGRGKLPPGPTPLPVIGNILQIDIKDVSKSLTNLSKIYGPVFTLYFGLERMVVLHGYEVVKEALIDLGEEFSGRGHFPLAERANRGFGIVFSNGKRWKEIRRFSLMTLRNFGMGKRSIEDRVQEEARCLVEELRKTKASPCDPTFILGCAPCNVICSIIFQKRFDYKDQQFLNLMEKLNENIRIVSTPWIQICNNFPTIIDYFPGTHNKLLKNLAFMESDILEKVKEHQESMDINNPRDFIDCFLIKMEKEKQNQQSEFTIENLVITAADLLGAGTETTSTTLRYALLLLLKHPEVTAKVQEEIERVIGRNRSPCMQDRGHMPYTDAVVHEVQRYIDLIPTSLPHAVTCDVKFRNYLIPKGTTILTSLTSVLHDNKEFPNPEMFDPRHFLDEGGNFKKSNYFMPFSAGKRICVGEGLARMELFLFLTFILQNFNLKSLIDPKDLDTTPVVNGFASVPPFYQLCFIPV
Sequence of human P450 2C9 (P11712 whole entry): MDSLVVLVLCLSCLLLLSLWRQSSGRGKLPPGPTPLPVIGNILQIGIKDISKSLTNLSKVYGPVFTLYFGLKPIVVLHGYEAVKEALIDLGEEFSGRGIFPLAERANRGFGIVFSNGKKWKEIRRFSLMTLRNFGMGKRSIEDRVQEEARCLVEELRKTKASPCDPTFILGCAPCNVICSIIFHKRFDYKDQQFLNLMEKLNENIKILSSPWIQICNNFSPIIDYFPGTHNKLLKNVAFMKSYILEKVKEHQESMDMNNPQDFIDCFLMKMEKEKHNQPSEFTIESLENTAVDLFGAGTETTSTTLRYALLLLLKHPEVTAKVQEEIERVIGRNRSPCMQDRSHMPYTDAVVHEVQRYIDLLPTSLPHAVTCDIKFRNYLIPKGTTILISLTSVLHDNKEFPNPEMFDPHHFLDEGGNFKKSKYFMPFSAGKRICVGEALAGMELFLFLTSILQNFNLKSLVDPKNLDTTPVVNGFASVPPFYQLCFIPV

SMILES	Hydroxylation activity, human P450 2D6 (human P450 2D6; microsomes)	Hydroxylation activity, human P450 1A2 (human P450 1A2; [7])	Hydroxylation activity, human P450 2C8 (human P450 2C8; microsomes)	Hydroxylated metabolite / hydroxylation activity with yeast expressing other human P450 than those named [1]	Hydroxylation activity, human P450 1A1 (human P450 1A1 [3])	Hydroxylation activity, human P450 2A6 (human P450 2A6; microsomes)	Hydroxylation activity, human P450 2C18 (human P450 2C18; [7])	Hydroxylation activity, human P450 2B6 (human P450 2B6; [7])	Hydroxylation activity, human P450 2E1 (human P450 2E1; [7])	Hydroxylation activity, human P450 3A4 (human P450 3A4; microsomes)	further results
CC[C@@]1(c2ccccc2)NC(=O)N(C)C1=O [S-Mephenytoin]	−	−	−	no activity	−	−	−	−	−	−	Metabolites compared with those reported for human liver microsome (Goldstein) [2]: well coincided; Hydroxylation activity, human P450 2C9 (human P450 2C9; [7]): −
N=C(N)N1CCc2ccccc2C1 [Debrisoquine]	+ + +		−	no activity		−				−	Hydroxylation activity, human P450 1A2 (human P450 1A2; microsomes): −; Hydroxylation activity, human P450 2C9 (human P450 2C9; microsomes): −; Hydroxylation activity, human P450 1A1 (human P450 1A1 [4]): + +; Hydroxylation activity, human P450 2C19 (human P450 2C19; microsomes): −; Hydroxylation activity, human P450 2C18 (human P450 2C18; microsomes): −; Hydroxylation activity, human P450 2B6 (human P450 2B6; microsomes): −; Hydroxylation activity, human P450 2E1 (human P450 2E1; microsomes): −; Metabolites compared with those reported for human liver microsome (Kronbach) [5]: well coincided
C[C@]12CC[C@H]3[C@@H](CCC4=CC(=O)CC[C@@]43C)[C@@H]1CC[C@@H]2O [Testosterone]		−			+		−	−	−		Hydroxylation activity, human P450 2D6 (human P450 2D6; [7]): −; Metabolising (hydroxylation / O-deethylation) activity in words, P450 2C8 (human P450 2C8; 7-ethoxycoumarin 0.5 mM, tolbutamide 1.0 mM, testosterone 0.05 mM, chlorzoxazone, acetanilide 5 mM): detected; Hydroxylation activity, human P450 2C8 (human P450 2C8; [7]): +; Hydroxylation activity, human P450 2C19 (human P450 2C19; [7]): −; Hydroxylation activity, human P450 2A6 (human P450 2A6; [7]): −; Hydroxylated metabolite / hydroxylation activity with yeast expressing other human P450 than those named [6]: not detected; Metabolising (hydroxylation / O-deethylation) activity in words, P450 3A4 (human P450 3A4; 7-ethoxycoumarin 0.5 mM, testosterone 0.05 mM, chlorzoxazone 0.5 mM or 250 μM, acetanilide 5 mM): detected; Hydroxylation activity, human P450 3A4 (human P450 3A4; [7]): + + +
